# Experiments:
# [1] = target: T1, human HRH4 (Homo sapiens, UniProt Q9H3N8); test: Histamine H4 receptor binding test ([3H]-Histamine radioligand binding); settings: membrane fraction of CHO-K1 expressing human HRH4; [3H]-Histamine 15 nM; Ki by Cheng-Prusoff
# T1 construct: purchased PerkinElmer
# Protocol: Membrane fraction of CHO-K1 stably expressing human HRH4 was purchased from PerkinElmer. Radioligand binding assay was performed in 96 well polypropylene assay plates in a total assay volume of 150 μL. Membrane suspension (15 μg of protein) was mixed with [3H]-Histamine (PerkinElmer) at 15 nM and compounds at various concentration in 50 mM Tris-HCl pH7.4, 5 mM EDTA buffer. Assays were incubated for 60 min at room temperature, then the reactions were terminated by rapid filtration over 96-well GF/B filter plates (PerkinElmer) presoaked in 0.5% polyethyleneimine. Unbound radioactivity was eliminated by six times of wash with 350 μL of ice-cold 50 mM Tris pH7.4 buffer. When the filter plates were dried, Microscint-MS liquid scintillation fluid (PerkinElmer) was added to each well and retained radioactivity plates were counted in a Topcount liquid scintillation counter (PerkinElmer). Specific binding was calculated by subtracting non-specific binding determined in the presence of 100 μM unlabeled histamine from total count.
# The resulting data were analyzed for IC50 using the non-linear regression on XLfit.
# Affinity values (Ki) were then determined by Cheng-Prusoff equation.
# [2] = Bioavailability (BA) test and total body clearance test; assay type: in vivo; settings: plasma, rat; for bioavailability: oral 1 mg/kg dosage
# Protocol: (1) Animal: mice or rats (2) Breeding conditions: mice and rats are allowed to freely take solid feed and sterilized tap water (3) Dose and grouping: orally or intravenously administered at a predetermined dose; grouping is as follows (Dose depends on the compound)
# Oral administration: 1 to 30 mg/kg (n=2 to 3)
# Intravenous administration: 0.5 to 10 mg/kg (n=2 to 3)
# (4) Preparation of dosing solution: for oral administration, in a solution or a suspension state; for intravenous administration, in a solubilized state (5) Administration method: in oral administration, forcedly administer into ventriculus with oral probe; in intravenous administration, administer from caudal vein with a needle-equipped syringe (6) Evaluation items: blood is collected over time, and the plasma concentration of drug is measured by LC/MS/MS (7) Statistical analysis: regarding the transition of the plasma concentration, the area under the plasma concentration-time curve (AUC) and total body clearance (Clt) are calculated by non-linear least squares program WinNonlin (Registered trademark), and the bioavailability (BA) is calculated from the AUCs of the oral administration group and intravenous administration group
# The following values show the rat BA of the compounds on oral 1 mg/kg dosage.
# [3] = target: T2, hERG (IKr) (Homo sapiens, UniProt Q12809); test: hERG test (whole cell patch clamp, IKr); assay type: cell-based; settings: HEK293 cells expressing hERG channel, pH 7.4, at 1 μmol/L, read-out: % inhibition of IKr (hERG tail peak current)
# T2 construct: expressed in transfected cells; host or cells: HEK293
# T2 sequence (Q12809 whole entry): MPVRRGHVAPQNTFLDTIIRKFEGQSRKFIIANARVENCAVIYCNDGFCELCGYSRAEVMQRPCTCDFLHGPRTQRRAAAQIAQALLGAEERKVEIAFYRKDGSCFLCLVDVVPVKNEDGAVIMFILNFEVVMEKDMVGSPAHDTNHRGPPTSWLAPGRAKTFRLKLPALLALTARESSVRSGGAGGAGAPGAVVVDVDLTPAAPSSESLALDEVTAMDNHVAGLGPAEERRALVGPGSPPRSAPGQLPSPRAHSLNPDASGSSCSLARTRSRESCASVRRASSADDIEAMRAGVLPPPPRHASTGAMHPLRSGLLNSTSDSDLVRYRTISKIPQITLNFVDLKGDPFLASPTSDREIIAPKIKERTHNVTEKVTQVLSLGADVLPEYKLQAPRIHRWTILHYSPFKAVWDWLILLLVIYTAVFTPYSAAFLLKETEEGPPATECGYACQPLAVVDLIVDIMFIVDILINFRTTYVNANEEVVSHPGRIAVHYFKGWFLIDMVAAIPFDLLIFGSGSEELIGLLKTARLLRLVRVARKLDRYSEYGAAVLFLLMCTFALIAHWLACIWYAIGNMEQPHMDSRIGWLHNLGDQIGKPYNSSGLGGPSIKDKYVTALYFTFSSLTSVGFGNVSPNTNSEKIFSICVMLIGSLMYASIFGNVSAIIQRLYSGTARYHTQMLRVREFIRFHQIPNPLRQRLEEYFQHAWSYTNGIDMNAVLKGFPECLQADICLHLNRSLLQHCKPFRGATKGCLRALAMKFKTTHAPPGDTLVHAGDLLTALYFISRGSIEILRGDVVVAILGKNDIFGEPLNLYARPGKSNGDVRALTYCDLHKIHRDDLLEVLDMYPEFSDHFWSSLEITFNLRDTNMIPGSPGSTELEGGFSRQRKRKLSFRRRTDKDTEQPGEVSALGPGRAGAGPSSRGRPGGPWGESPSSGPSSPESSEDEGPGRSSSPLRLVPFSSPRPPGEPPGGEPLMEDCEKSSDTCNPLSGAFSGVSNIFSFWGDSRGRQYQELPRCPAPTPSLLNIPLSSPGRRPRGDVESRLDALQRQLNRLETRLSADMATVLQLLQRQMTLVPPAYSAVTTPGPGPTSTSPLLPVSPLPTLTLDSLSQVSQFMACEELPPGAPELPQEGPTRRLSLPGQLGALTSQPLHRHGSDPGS
# Source text: For the purpose of assessing risk of an electrocardiogram QT interval prolongation, effects on delayed rectifier K^+ current (IKr), which plays an important role in the ventricular repolarization process, was studied using HEK293 cells expressing human ether-a-go-go related gene (hERG) channel. After a cell was retained at a membrane potential of −80 mV by whole cell patch clamp method using an automated patch clamp system (PatchXpress 7000A, Axon Instruments Inc.), IKr induced by depolarization pulse stimulation at +50 mV for 2 seconds and, further, repolarization pulse stimulation at −50 mV for 2 seconds was recorded. […] From the recording IKr, an absolute value of the tail peak current was measured based on the current value at the resting membrane potential using an analysis software (DataXpress ver.1, Molecular Devices Corporation). Further, the % inhibition relative to the tail peak current before application of the test substance was calculated, and compared with the vehicle-applied group (0.1% dimethyl sulfoxide solution) to assess influence of the test substance on IKr.
# [4] = Solubility test (artificial intestinal juice pH 6.8, 1% DMSO); assay type: physicochemical; settings: artificial intestinal juice pH 6.8 with 1% DMSO, fassgf or other biorelevant, kinetic from dmso stock, 25° C.
# Protocol: The solubility of a compound is determined under a condition in which 1% DMSO is added. 10 mM compound solution is prepared using DMSO, and then 6 μL of the compound solution is added to 594 μL of artificial intestinal juice in pH 6.8 (to 250 mL of 0.2 mol/L potassium dihydrogen phosphate reagent solution is added 118 mL of 0.2 mol/L NaOH reagent solution and water to provide a final volume of 1000 mL). After standing at 25° C. for 16 hours, the mixed solution is filtrated with suction. The filtrate is diluted twice with methanol/water (1/1), and then a concentration in the filtration is measured with HPLC or LC/MS/MS by the absolute calibration method.
# [5] = target: T3, CYP1A2 (Homo sapiens, UniProt P05177); test: CYP inhibition test (pooled human hepatic microsome); assay type: in vitro ADME; settings: 7-ethoxyresorufin O-deethylation
# T3 construct: enzyme, pooled human hepatic microsome 0.2 mg protein/mL; from tissue
# T3 sequence (P05177 1-516): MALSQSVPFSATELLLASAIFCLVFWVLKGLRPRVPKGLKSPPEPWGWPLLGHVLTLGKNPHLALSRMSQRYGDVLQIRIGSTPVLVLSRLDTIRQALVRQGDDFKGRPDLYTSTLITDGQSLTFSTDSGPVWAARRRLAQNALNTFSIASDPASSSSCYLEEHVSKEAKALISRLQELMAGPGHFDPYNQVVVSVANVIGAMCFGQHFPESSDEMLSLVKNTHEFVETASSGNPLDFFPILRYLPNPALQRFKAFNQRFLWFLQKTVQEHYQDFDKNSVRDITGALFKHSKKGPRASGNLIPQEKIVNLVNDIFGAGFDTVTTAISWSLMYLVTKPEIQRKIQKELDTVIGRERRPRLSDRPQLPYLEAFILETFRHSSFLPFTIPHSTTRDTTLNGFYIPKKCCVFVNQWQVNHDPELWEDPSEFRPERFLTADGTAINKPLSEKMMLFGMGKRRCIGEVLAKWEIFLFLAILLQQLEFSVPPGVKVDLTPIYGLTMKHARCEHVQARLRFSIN
# Protocol: (§1) Using commercially available pooled human hepatic microsome, and employing, as markers, 7-ethoxyresorufin O-deethylation (CYP1A2), tolbutamide methylhydroxylation (CYP2C9), mephenyloin 4′-hydroxylation (CYP2C19), dextromethorphan O-demethylation (CYP2D6), and terfenedine hydroxylation as typical substrate metabolism reactions of human main five CYP enzyme forms (CYP1A2, 2C9, 2C19, 2D6, 3A4), an inhibitory degree of each metabolite production amount by a test compound was assessed. The reaction conditions were as follows: substrate, 0.5 μmol/L ethoxyresorufin (CYP1A2), 100 μmol/L tolbutamide (CYP2C9), 50 μmol/L S-mephenitoin (CYP2C19), 5 μmol/L dextromethorphan (CYP2D6), 1 μmol/L terfenedine (CYP3A4); reaction time, 15 minutes; reaction temperature, 37° C.; enzyme, pooled human hepatic microsome 0.2 mg protein/mL; test drug concentration, 1, 5, 10, 20 μmol/L (four points). Each five kinds of substrates, human hepatic microsome, or a test drug in 50 mM Hepes buffer as a reaction solution was added to a 96-well plate at the composition as described above, NADPH, as a cofactor was added to initiate metabolism reactions as markers and, after the incubation at 37° C. for 15 minutes, a methanol/acetonitrile=1/1 (v/v) solution was added to stop the reaction. After the centrifugation at 3000 rpm for 15 minutes, resorufin (CYP1A2 metabolite) in the supernatant was quantified by a fluorescent multilabel counter and tributamide hydroxide (CYP2CP metabolite), mephenyloin 4′ hydroxide (CYP2C19 metabolite), […] (CYP2D6 metabolite), and terfenadine alcohol (CYP3A4 metabolite) were quantified by LC/MS/MS. Addition of only DMSO being a solvent dissolving a drug to a reaction system was adopted as a control (100%), remaining activity (%) was calculated at each concentration of a test drug added as the solution and IC50 was calculated by reverse presumption by a logistic model using a concentration and an inhibition rate.
# [6] = target: T4, CYP2C19 (Homo sapiens, UniProt P33261); test: as above; assay type: in vitro ADME; settings: mephenyloin 4′-hydroxylation
# T4 construct: enzyme, pooled human hepatic microsome 0.2 mg protein/mL; from tissue
# T4 sequence (P33261 whole entry): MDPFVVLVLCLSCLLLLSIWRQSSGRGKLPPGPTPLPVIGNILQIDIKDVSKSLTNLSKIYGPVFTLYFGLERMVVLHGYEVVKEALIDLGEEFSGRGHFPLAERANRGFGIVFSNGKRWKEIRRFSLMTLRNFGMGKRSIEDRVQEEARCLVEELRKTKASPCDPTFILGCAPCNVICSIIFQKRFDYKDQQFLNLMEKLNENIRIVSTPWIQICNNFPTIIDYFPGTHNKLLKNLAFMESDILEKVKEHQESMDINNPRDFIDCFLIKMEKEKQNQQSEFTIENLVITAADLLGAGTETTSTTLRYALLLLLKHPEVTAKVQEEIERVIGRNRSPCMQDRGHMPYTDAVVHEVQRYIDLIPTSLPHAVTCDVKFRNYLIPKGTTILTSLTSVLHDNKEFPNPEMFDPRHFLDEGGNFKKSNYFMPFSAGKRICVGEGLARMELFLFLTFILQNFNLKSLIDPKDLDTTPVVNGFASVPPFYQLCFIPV
# Protocol: as §1
# [7] = target: T5, CYP2D6 (Homo sapiens, UniProt P10635); test: as above; assay type: in vitro ADME; settings: dextromethorphan O-demethylation
# T5 construct: enzyme, pooled human hepatic microsome 0.2 mg protein/mL; from tissue
# T5 sequence (P10635 whole entry): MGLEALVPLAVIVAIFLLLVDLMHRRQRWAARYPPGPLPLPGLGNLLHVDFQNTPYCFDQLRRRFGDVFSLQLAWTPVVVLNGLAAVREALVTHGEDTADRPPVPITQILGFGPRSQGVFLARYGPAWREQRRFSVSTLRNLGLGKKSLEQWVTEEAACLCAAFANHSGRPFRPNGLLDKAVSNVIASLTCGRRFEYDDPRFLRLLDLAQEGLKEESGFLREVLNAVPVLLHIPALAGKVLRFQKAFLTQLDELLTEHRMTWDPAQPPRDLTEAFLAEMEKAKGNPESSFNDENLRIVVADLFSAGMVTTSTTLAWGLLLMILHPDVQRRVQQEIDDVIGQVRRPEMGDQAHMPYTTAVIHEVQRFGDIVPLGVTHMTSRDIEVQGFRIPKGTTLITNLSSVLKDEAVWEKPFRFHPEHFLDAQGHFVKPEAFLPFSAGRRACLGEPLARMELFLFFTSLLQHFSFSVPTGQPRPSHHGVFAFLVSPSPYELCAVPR
# Protocol: as §1
# [8] = target: T6, CYP2C9 (Homo sapiens, UniProt P11712); test: as above; assay type: in vitro ADME; settings: tolbutamide methylhydroxylation
# T6 construct: enzyme, pooled human hepatic microsome 0.2 mg protein/mL; from tissue
# T6 sequence (P11712 whole entry): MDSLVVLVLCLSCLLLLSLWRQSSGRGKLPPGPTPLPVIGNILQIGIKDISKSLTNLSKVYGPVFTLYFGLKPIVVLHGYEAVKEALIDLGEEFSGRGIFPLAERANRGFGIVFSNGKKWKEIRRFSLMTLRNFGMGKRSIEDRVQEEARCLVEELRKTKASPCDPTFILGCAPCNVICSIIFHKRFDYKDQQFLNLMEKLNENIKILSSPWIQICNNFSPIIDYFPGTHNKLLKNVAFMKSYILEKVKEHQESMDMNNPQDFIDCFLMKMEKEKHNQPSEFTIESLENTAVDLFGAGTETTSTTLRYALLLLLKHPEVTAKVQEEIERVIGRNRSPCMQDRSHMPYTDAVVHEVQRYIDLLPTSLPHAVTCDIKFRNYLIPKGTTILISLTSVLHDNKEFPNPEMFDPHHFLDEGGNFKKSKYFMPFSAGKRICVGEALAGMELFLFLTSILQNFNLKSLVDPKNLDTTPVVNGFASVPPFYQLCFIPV
# Protocol: as §1
# [9] = target: T7, CYP3A4 (Homo sapiens, UniProt P08684); test: CYP3A4 fluorescent MBI test; assay type: in vitro ADME; parameters: host or cells: Escherichia coli; settings: prereaction 0 or 30 minutes; substrate 7-BFC; CYP3A4 expressed in Escherichia coli
# T7 sequence (P08684 whole entry): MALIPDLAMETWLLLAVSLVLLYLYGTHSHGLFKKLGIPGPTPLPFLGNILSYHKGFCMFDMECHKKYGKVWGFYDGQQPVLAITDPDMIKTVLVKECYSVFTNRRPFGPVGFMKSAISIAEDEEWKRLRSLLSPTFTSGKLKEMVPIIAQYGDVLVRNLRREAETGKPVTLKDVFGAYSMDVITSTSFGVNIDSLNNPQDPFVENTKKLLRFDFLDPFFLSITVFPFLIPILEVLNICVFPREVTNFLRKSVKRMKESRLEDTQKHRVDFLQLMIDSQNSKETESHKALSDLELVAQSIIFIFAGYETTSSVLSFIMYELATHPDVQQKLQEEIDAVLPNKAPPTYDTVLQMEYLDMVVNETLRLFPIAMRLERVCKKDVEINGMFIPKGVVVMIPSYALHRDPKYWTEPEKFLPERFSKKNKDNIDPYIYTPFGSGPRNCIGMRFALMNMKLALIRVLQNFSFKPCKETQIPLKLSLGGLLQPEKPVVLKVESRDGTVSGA
# Protocol: The CYP3A4 fluorescent MBI test is a test of investigating enhancement of CYP3A4 inhibition of a compound by a metabolism reaction, and the test was performed using, as CYP3A4 enzyme expressed in Escherichia coli and employing, as an index, a reaction in which 7-benzyloxytrifluoromethylchmarin (BFC) is debenzylated by the CYP3A4 enzyme to produce a metabolite, 7-hydroxytrifluoromethylchmarin (HFC) emitting fluorescent light.
# The reaction conditions were as follows: substrate, 5.6 μmol/L 7-BFC; prereaction time, 0 or 30 minutes; reaction time, 15 minutes; reaction temperature, 25° C. […]
# An enzyme in a K-Pi buffer (pH 7.4) and a test drug solution as a pre-reaction solution were added to a 96-well plate at the composition of the pre-reaction, a part of it was transferred to another 96-well plate so that it was 1/10 diluted by a substrate in a K-Pi buffer, NADPH as a co-factor was added to initiate a reaction as an index (without preincubation) and, after a predetermined time of a reaction, acetonitrile/0.5 mol/L Tris(trishydroxyaminomethane)=4/1 was added to stop the reaction. […] For the plate on which each index reaction had been performed, a fluorescent value of 7-HFC which is a metabolite was measured with a fluorescent plate reader. […]
# [10] = target: T7, CYP3A4; test: CYP inhibition test (pooled human hepatic microsome); assay type: in vitro ADME; parameters: enzyme, pooled human hepatic microsome 0.2 mg protein/mL; from tissue; settings: terfenedine hydroxylation
# Protocol: Using commercially available pooled human hepatic microsome, and employing, as markers, 7-ethoxyresorufin O-deethylation (CYP1A2), tolbutamide methylhydroxylation (CYP2C9), mephenyloin 4′-hydroxylation (CYP2C19), dextromethorphan O-demethylation (CYP2D6), and terfenedine hydroxylation as typical substrate metabolism reactions of human main five CYP enzyme forms (CYP1A2, 2C9, 2C19, 2D6, 3A4), an inhibitory degree of each metabolite production amount by a test compound was assessed. […] After the centrifugation at 3000 rpm for 15 minutes, resorufin (CYP1A2 metabolite) in the supernatant was quantified by a fluorescent multilabel counter and tributamide hydroxide (CYP2CP metabolite), mephenyloin 4′ hydroxide (CYP2C19 metabolite), […], and terfenadine alcohol (CYP3A4 metabolite) were quantified by LC/MS/MS. Addition of only DMSO being a solvent dissolving a drug to a reaction system was adopted as a control (100%), remaining activity (%) was calculated at each concentration of a test drug added as the solution and IC50 was calculated by reverse presumption by a logistic model using a concentration and an inhibition rate.
# [11] = Metabolism stability test (rat); assay type: in vitro ADME; settings: test compound concentration 2 μmol/L, 30 minutes, 37° C.
# [12] = Metabolism stability test (human); assay type: in vitro ADME; settings: test compound concentration 2 μmol/L, 30 minutes, 37° C.
# Protocol: Using commercially available pooled human hepatic microsomes, prepared in accordance with Japanese journal of pharmacology, 33 (1), p. 41-56, February 1983, a test compound was reacted for a constant time, a remaining rate was calculated by comparing a reacted sample and an unreacted sample, thereby, a degree of metabolism in liver was assessed.
# A reaction was performed (oxidative reaction) at 37° C. for 0 minute or 30 minutes in the presence of 1 mmol/L NADPH in 0.2 mL of a buffer (50 mmol/L tris-HCl pH 7.4, 150 mmol/L potassium chloride, 10 mmol/L magnesium chloride) containing 0.5 mg protein/mL of human liver microsomes. After the reaction, 50 μL of the reaction solution was added to 100 μL of a methanol/acetonitrile=1/1 (v/v), mixed and centrifuged at 3000 rpm for 15 minutes. The test compound in the supernatant was quantified by LC/MS/MS, and a remaining amount of the test compound after the reaction was calculated, letting a compound amount at 0 minute reaction time to be 100%. Hydrolysis reaction was performed in the absence of NADPH and glucuronidation reaction was in the presence of 5 mM UDP-glucuronic acid in place of NADPH, followed by similar operations.
# T1 sequence (Q9H3N8 whole entry): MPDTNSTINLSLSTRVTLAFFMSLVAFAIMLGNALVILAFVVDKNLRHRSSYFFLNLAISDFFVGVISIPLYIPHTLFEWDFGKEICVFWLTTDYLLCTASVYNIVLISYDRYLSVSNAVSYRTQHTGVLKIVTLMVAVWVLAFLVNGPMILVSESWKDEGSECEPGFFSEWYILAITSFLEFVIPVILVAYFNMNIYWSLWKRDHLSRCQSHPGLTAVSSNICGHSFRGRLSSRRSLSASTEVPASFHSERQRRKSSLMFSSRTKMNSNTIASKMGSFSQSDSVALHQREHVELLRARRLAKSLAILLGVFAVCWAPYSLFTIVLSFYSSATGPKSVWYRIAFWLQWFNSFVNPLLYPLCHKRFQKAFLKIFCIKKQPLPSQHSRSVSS
smiles,measurement,setting,value
CN1CCN(C(=O)c2cc3c([nH]2)CCC(C#N)C3)CC1 (stereo not drawn) [Compound I-035],Ki,[1],150 nM
same,bioavailability,[2],31%
same,"inhibition at 10 min, 1 μmol/L",[3],0%
CN1CCN(C(=O)c2cc3c([nH]2)C(CO)CCC3)CC1 (stereo not drawn) [Compound I-043],Ki,[1],270 nM
same,"inhibition at 10 min, 1 μmol/L",[3],0%
CN1CCN(C(=O)c2cc3c([nH]2)CCC(F)(F)C3)CC1 [Compound I-050],Ki,[1],63 nM
same,solubility at 16 h,[4],> 50 µM
same,IC50,[5],> 20000 nM
same,IC50,[6],> 20000 nM
same,IC50,[7],> 20000 nM
same,IC50,[8],> 20000 nM
same,CYP3A4 MBI: difference between IC50 values,[9],"(−) (when the difference is 3 μM or less, this was defined as (−))"
same,IC50,[10],> 20000 nM
O=C(c1cc2c([nH]1)CCC(Cl)(Cl)C2O)N1CCNCC1 (stereo not drawn) [Compound I-073],Ki,[1],980 nM
same,remaining rate,[11],79%
same,bioavailability,[2],59%
same,clearance,"[2]; intravenous, read-out: Clt (total body clearance)",24 mL/min/kg
same,remaining rate,[12],99%

# Reference: patent US20120277238A1, “PHARMACEUTICAL COMPOSITION CONTAINING FUSED HETERO-RING DERIVATIVE” (Shionogi & Co., Ltd, priority 2009, published 2012)
